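Grown in 96-well plates, cells were treated for 48 hours with each compound at five concentrations. Insufficient inhibition: endpoint recorded as highest concentration tested. Here, GI50 denotes the concentration required for 50% inhibition of growth. Definition used: TGI = concentration required for complete inhibition of growth.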 Where a SMILES comes first, the peptide text is derived from it.
Experiments:
Assay in all cases: NCI tumour cell line growth inhibition, 48 h
TK-10 renal = tested on: TK-10 renal
OVCAR-8 ovarian = tested on: OVCAR-8 ovarian
NCI-H460 lung = tested on: NCI-H460 lung
MDA-MB-435 = tested on: MDA-MB-435
SK-MEL-28 melanoma = tested on: SK-MEL-28 melanoma
MALME-3M melanoma = tested on: MALME-3M melanoma
SN12C renal = tested on: SN12C renal
PC-3 prostate = tested on: PC-3 prostate
SW-620 colon = tested on: SW-620 colon
CCRF-CEM leukemia = tested on: CCRF-CEM leukemia
MDA-MB-231 breast = tested on: MDA-MB-231 breast
SNB-19 CNS = tested on: SNB-19 CNS
NCI/ADR-RES ovarian = tested on: NCI/ADR-RES ovarian
UACC-62 melanoma = tested on: UACC-62 melanoma
EKVX NSCLC = tested on: EKVX NSCLC
HCT-15 colon = tested on: HCT-15 colon
CAKI-1 renal = tested on: CAKI-1 renal
RPMI-8226 leukemia = tested on: RPMI-8226 leukemia
SF-268 CNS = tested on: SF-268 CNS

SMILES	TGI (TK-10 renal) [µM]	TGI (OVCAR-8 ovarian) [µM]	TGI (NCI-H460 lung) [µM]	TGI (MDA-MB-435) [µM]	TGI (SK-MEL-28 melanoma) [µM]	TGI (MALME-3M melanoma) [µM]	TGI (SN12C renal) [µM]	TGI (PC-3 prostate) [µM]	TGI (SW-620 colon) [µM]	TGI (CCRF-CEM leukemia) [µM]	TGI (MDA-MB-231 breast) [µM]	TGI (SNB-19 CNS) [µM]	TGI (NCI/ADR-RES ovarian) [µM]	TGI (UACC-62 melanoma) [µM]	TGI (EKVX NSCLC) [µM]	TGI (HCT-15 colon) [µM]	TGI (CAKI-1 renal) [µM]	TGI (RPMI-8226 leukemia) [µM]	TGI (SF-268 CNS) [µM]	GI50 (MALME-3M melanoma) [µM]
CN(C)CCCNc1c(O)c2c(c(O)c1Cl)C(=O)C=CC2=O	> 10	9.69	3.81	4.33	2.85	3.25	3.2	6.83	3.39	5.7	7.77	4.67	5.38	3.18	> 10	3.28	> 10			
c1ccc(COc2ccc(CC3SCCCS3)cc2)cc1	> 100	> 100	> 100	> 100	> 100	> 100		> 100	> 100	> 100	> 100	> 100		> 100	> 100	> 100	> 100	> 100	> 100	
C=CC1(C)CCC(C(C)C(=O)C(C=C(C)C)OC(C)=O)C12C(=O)Oc1ccccc1C2=O (stereo not given)	> 100	> 100	> 100		> 100	> 100	> 100		> 100	> 100		> 100		> 100	> 100	> 100		68.2	> 100	
NC(N)=NCCCC(N=c1c2ccccc2n(O)c2ccccc12)C(=O)O (stereo not given)	> 100	> 100	> 100		90.1	> 100	> 100		> 100	> 100		> 100		> 100	> 100	> 100		75.7	> 100	
O=c1c(O)c(-c2ccc(O)cc2O)oc2cc(O)cc(O)c12	> 100	> 100	> 100	> 100	> 100	> 100	> 100	> 100	> 100	> 100	> 100	> 100	> 100		> 100	> 100	> 100		> 100	
CC1NC(=O)CNC(=O)CNC(=O)C(Cc2ccc(O)cc2)NC(=O)C(C(C)C)NC(=O)C(C)NC1=O (stereo not given) (cyclo(GGAAVY); configuration not given here)		> 100	> 100		> 100	> 100	> 100		> 100	> 100		> 100	> 100	> 100	> 100	> 100	> 100	> 100	> 100	> 100
Cc1cc(-c2ccc(C(=O)O)[nH]2)on1	> 100	> 100	> 100	> 100	> 100	> 100		> 100	> 100		> 100	> 100	75.9	> 100	> 100	> 100	> 100	> 100	> 100	
COc1ccc2c(c1)C(N)CC2=O (stereo not given)	> 100	> 100		> 100	> 100		> 100	34.8	> 100	> 100	> 100	> 100	> 100	> 100	> 100	> 100	> 100	> 100	> 100	
COc1c2c(c(OC)c3c1c(=O)c1ccccc1n3C)OCO2	> 100	> 100	51.2	6.46	> 100		> 100	> 100	> 100	> 31.6	> 31.6	> 100	> 100	> 100	> 100	> 100	> 100	> 100	> 100	
CSC(SC)=C1CC(=O)Nc2ccccc2C1=O	> 100	> 100	> 100	> 100	> 100	> 100	> 100	> 100		52.7	> 100	> 100	> 100	> 100	> 100	> 100	94.1		> 100	
NC(=S)/N=C/c1c(O)c2ccccc2oc1=O	> 100	> 100	> 100		> 100	99.4	> 100		> 100	> 100		> 100		> 100	> 100	> 100	77.9	> 100	> 100	
CCN1CC2=C(N=c3s/c(=C\c4ccc(Cl)cc4)c(=O)n3C2c2ccc(Cl)cc2)/C(=C/c2ccc(Cl)cc2)C1 (stereo not given)	62.5	> 100	> 100	> 100	> 100	> 100		> 100	> 100	> 100	> 100	> 100	> 100	> 100	> 100	> 100	> 100	> 100	80.6	
Cc1ccc2c(c1)SSSSS2	37.9	53.7	32.5	38.8	65.4	44.6	46.7	57.8	37.1	17	59.1	48	66.7	36.2	65.1	30	36		60.5	
CC(C(=O)N1C(=O)N(C(=O)C(C)C(O)c2ccccc2)C(c2ccccc2)C1c1ccccc1)C(O)c1ccccc1 (stereo not given)	> 100	> 100	19.9	61.2	40.2	32.3	37.3		> 100	32.2	77.9	> 100		40.5		> 100		13.6	> 100	
